# Values joined by “and” are separate entries in the source; they are usually repeats but may differ in a detail not shown here. Equal entries are not always repeated. Inconclusive results and toxic doses are left out.
# Test system: P388 leukemia ip, CD2F1 mice, survival T/C
# Assay: NCI In Vivo Anticancer Drug Screen. Data for tumor model P388 Leukemia (intraperitoneal) in CD2F1 (CDF1) mice
# Details: endpoint: median survival time, higher = longer survival
# In short: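 Mice carrying the transplanted tumor received test compound or vehicle. Survival was recorded in each group, and the value is the treated-group measurement divided by that of the vehicle-treated control group.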
# [1] = dose: 25.0 mg/kg/injection, schedule: Q04DX003 (ip), vehicle: saline
# [2] = dose: 50.0 mg/kg/injection, schedule: Q01DX005 (ip), vehicle: Klucel (hydroxypropylcellulose) (HPC)
# [3] = dose: 50.0 mg/kg/injection, schedule: Q01DX005 (ip), vehicle: saline
# [4] = dose: 100.0 mg/kg/injection, schedule: Q01DX005 (ip), vehicle: Klucel (hydroxypropylcellulose) (HPC)
# [5] = dose: 100.0 mg/kg/injection, schedule: Q01DX005 (ip), vehicle: saline
# [6] = dose: 50.0 mg/kg/injection, schedule: Q01DX005 (ip), vehicle: saline with Tween-80
# [7] = dose: 100.0 mg/kg/injection, schedule: Q01DX005 (ip), vehicle: saline with Tween-80
# [8] = dose: 200.0 mg/kg/injection, schedule: Q01DX005 (ip), vehicle: saline with Tween-80
# [9] = dose: 50.0 mg/kg/injection, schedule: Q01DX009 (ip), vehicle: saline with Tween-80
# [10] = dose: 100.0 mg/kg/injection, schedule: Q01DX009 (ip), vehicle: saline with Tween-80
# [11] = dose: 200.0 mg/kg/injection, schedule: Q01DX009 (ip), vehicle: saline with Tween-80
# [12] = dose: 200.0 mg/kg/injection, schedule: Q01DX005 (ip), vehicle: Klucel (hydroxypropylcellulose) (HPC)
compound,measurement,setting,value
CC[n+]1c(-c2ccccc2)c2cc(N)ccc2c2ccc(N)cc21,T/C,"dose: 0.39 mg/kg/injection, schedule: Q04DX003 (ip), vehicle: saline",101 % of control
same,T/C,"dose: 0.39 mg/kg/injection, schedule: Q04DX003 (ip), vehicle: water",103 % of control
same,T/C,"dose: 0.78 mg/kg/injection, schedule: Q04DX003 (ip), vehicle: saline",100 % of control
same,T/C,"dose: 0.78 mg/kg/injection, schedule: Q04DX003 (ip), vehicle: water",104 % of control
same,T/C,"dose: 1.56 mg/kg/injection, schedule: Q01DX009 (ip), vehicle: saline",150 % of control
same,T/C,"dose: 1.56 mg/kg/injection, schedule: Q04DX003 (ip), vehicle: saline",106 % of control
same,T/C,"dose: 1.56 mg/kg/injection, schedule: Q04DX003 (ip), vehicle: water",113 % of control
same,T/C,"dose: 3.13 mg/kg/injection, schedule: Q01DX009 (ip), vehicle: saline",153 % of control
same,T/C,"dose: 3.13 mg/kg/injection, schedule: Q01DX009 (ip), vehicle: water",161 % of control
same,T/C,"dose: 3.13 mg/kg/injection, schedule: Q04DX003 (ip), vehicle: saline",114 % of control
same,T/C,"dose: 3.13 mg/kg/injection, schedule: Q04DX003 (ip), vehicle: water",123 % of control
same,T/C,"dose: 6.25 mg/kg/injection, schedule: Q01DX009 (ip), vehicle: saline",170 % of control
same,T/C,"dose: 18.0 mg/kg/injection, schedule: Q04DX003 (ip), vehicle: saline sonified",150 % of control
same,T/C,[1],117 % of control
same,T/C,"dose: 27.0 mg/kg/injection, schedule: Q04DX003 (ip), vehicle: saline sonified",109 % of control
N=C(N)c1ccc(-c2[nH]c3cc(C(=N)N)ccc3c2N)cc1,T/C,"dose: 6.25 mg/kg/injection, schedule: Q04DX003 (ip), vehicle: saline",86 % of control
same,T/C,"dose: 12.5 mg/kg/injection, schedule: Q04DX003 (ip), vehicle: saline",88 % of control
same,T/C,[1],92 % of control
Oc1ccccc1C=NCc1ccccc1.[CH-]=C([CH2-])C.[Pd+2],T/C,"dose: 6.25 mg/kg/injection, schedule: Q01DX009 (ip), vehicle: Klucel (hydroxypropylcellulose) (HPC)",107 % of control
same,T/C,"dose: 6.25 mg/kg/injection, schedule: Q04DX003 (ip), vehicle: Klucel (hydroxypropylcellulose) (HPC)",92 % of control
same,T/C,"dose: 12.5 mg/kg/injection, schedule: Q01DX009 (ip), vehicle: Klucel (hydroxypropylcellulose) (HPC)",106 % of control
same,T/C,"dose: 12.5 mg/kg/injection, schedule: Q04DX003 (ip), vehicle: Klucel (hydroxypropylcellulose) (HPC)",113 % of control
same,T/C,"dose: 25.0 mg/kg/injection, schedule: Q01DX009 (ip), vehicle: Klucel (hydroxypropylcellulose) (HPC)",106 % of control
same,T/C,"dose: 25.0 mg/kg/injection, schedule: Q04DX003 (ip), vehicle: Klucel (hydroxypropylcellulose) (HPC)",111 % of control
Cc1ccc(-c2nc3scc(C)n3n2)cc1,T/C,"dose: 60.0 mg/kg/injection, schedule: Q01DX005 (ip), vehicle: Klucel (hydroxypropylcellulose) (HPC)",100 % of control
same,T/C,"dose: 120.0 mg/kg/injection, schedule: Q01DX005 (ip), vehicle: Klucel (hydroxypropylcellulose) (HPC)",96 % of control
same,T/C,"dose: 240.0 mg/kg/injection, schedule: Q01DX005 (ip), vehicle: Klucel (hydroxypropylcellulose) (HPC)",103 % of control
Brc1cc(-c2ccccc2)on1,T/C,"dose: 100.0 mg/kg/injection, schedule: Q04DX003 (ip), vehicle: Klucel (hydroxypropylcellulose) (HPC)",108 % of control
same,T/C,"dose: 200.0 mg/kg/injection, schedule: Q04DX003 (ip), vehicle: Klucel (hydroxypropylcellulose) (HPC)",103 % of control
same,T/C,"dose: 400.0 mg/kg/injection, schedule: Q04DX003 (ip), vehicle: Klucel (hydroxypropylcellulose) (HPC)",105 % of control
FC(F)(F)C1=C(C(F)(F)F)SP(Cl)(Cl)(c2ccccc2)S1,T/C,"dose: 12.5 mg/kg/injection, schedule: Q04DX003 (ip), vehicle: saline with Tween-80",105 % of control
same,T/C,"dose: 25.0 mg/kg/injection, schedule: Q04DX003 (ip), vehicle: saline with Tween-80",105 % of control
same,T/C,"dose: 50.0 mg/kg/injection, schedule: Q04DX003 (ip), vehicle: saline with Tween-80",105 % of control
same,T/C,"dose: 75.0 mg/kg/injection, schedule: Q04DX003 (ip), vehicle: saline with Tween-80",101 % of control
OCCN1CCN(CCCN2c3cc(Cl)ccc3Sc3sccc32)CC1,T/C,[2],92 % of control
same,T/C,[3],100 % of control
same,T/C,[4],90 % of control
same,T/C,[5],106 % of control
Cc1ccc(S(=O)(=O)N(CCCc2c(-c3ccccc3)nc(N)[nH]c2=O)c2ccccc2)cc1,T/C,"dose: 3.75 mg/kg/injection, schedule: Q01DX005 (ip), vehicle: saline with Tween-80",102 % of control
same,T/C,"dose: 7.5 mg/kg/injection, schedule: Q01DX005 (ip), vehicle: saline with Tween-80",94 % of control
same,T/C,"dose: 15.0 mg/kg/injection, schedule: Q01DX005 (ip), vehicle: saline with Tween-80",107 % of control and 87 % of control
same,T/C,"dose: 60.0 mg/kg/injection, schedule: Q01DX005 (ip), vehicle: saline with Tween-80",98 % of control and 90 % of control
O=C1NN2CCN=C2c2ccncc21,T/C,[3],97 % of control
same,T/C,[5],103 % of control
same,T/C,"dose: 200.0 mg/kg/injection, schedule: Q01DX005 (ip), vehicle: saline",100 % of control
CC(C)CC(=O)CC(C)(O)CCC(=O)c1ccoc1 (configuration not stated),T/C,"dose: 25.0 mg/kg/injection, schedule: Q01DX005 (ip), vehicle: saline with Tween-80",98 % of control
same,T/C,[6],104 % of control
same,T/C,[7],102 % of control
S=C(S)NCCCn1ccnc1,T/C,[6],117 % of control
same,T/C,[7],109 % of control
same,T/C,[8],110 % of control
COc1cc(O)cc2c1CCC(c1ccccc1)O2 (configuration not stated),T/C,"dose: 1.8 mg/kg/injection, schedule: Q01DX005 (ip), vehicle: Klucel + Tween-80",107 % of control
same,T/C,"dose: 3.5 mg/kg/injection, schedule: Q01DX005 (ip), vehicle: Klucel + Tween-80",107 % of control
same,T/C,"dose: 7.0 mg/kg/injection, schedule: Q01DX005 (ip), vehicle: Klucel + Tween-80",97 % of control
same,T/C,"dose: 14.0 mg/kg/injection, schedule: Q01DX005 (ip), vehicle: Klucel + Tween-80",100 % of control
CC(=O)O[C@H]1[C@@H](C(C)C)CC[C@@]2(C)[C@H](Br)CC[C@@](C)(O)[C@H]12,T/C,"dose: 20.0 mg/kg/injection, schedule: Q01DX005 (ip), vehicle: other",105 % of control
same,T/C,"dose: 40.0 mg/kg/injection, schedule: Q01DX005 (ip), vehicle: other",105 % of control
same,T/C,"dose: 80.0 mg/kg/injection, schedule: Q01DX005 (ip), vehicle: other",105 % of control
Cc1ccc(NS(=O)(=O)c2ccccc2)nc1,T/C,"dose: 25.0 mg/kg/injection, schedule: Q01DX009 (ip), vehicle: saline with Tween-80",110 % of control
same,T/C,[9],100 % of control
same,T/C,[10],100 % of control
same,T/C,[11],95 % of control
same,T/C,"dose: 400.0 mg/kg/injection, schedule: Q01DX009 (ip), vehicle: saline with Tween-80",105 % of control
N#CN(Cc1ccccc1)Cc1ccccc1.[Br][Sn]([c]1ccccc1)([c]1ccccc1)[c]1ccccc1,T/C,"dose: 3.12 mg/kg/injection, schedule: Q01DX005 (ip), vehicle: saline with Tween-80",100 % of control
same,T/C,"dose: 6.25 mg/kg/injection, schedule: Q01DX005 (ip), vehicle: saline with Tween-80",100 % of control
same,T/C,"dose: 12.5 mg/kg/injection, schedule: Q01DX005 (ip), vehicle: saline with Tween-80",91 % of control
same,T/C,[6],114 % of control
CCOC(=O)/C=C(/C)Nc1ccc2c(c1)OCO2,T/C,[2],103 % of control
same,T/C,[4],110 % of control
same,T/C,[12],111 % of control
Nc1[nH]c(=O)[nH]c(=O)c1N,T/C,[9],100 % of control
same,T/C,[10],100 % of control
same,T/C,[11],100 % of control
CSC(=Nc1ccc(C)c(Cl)c1)NC#N,T/C,"dose: 50.0 mg/kg/injection, schedule: Q01DX009 (ip), vehicle: Klucel (hydroxypropylcellulose) (HPC)",98 % of control
same,T/C,"dose: 100.0 mg/kg/injection, schedule: Q01DX009 (ip), vehicle: Klucel (hydroxypropylcellulose) (HPC)",91 % of control
same,T/C,"dose: 200.0 mg/kg/injection, schedule: Q01DX009 (ip), vehicle: Klucel (hydroxypropylcellulose) (HPC)",92 % of control
Clc1cccc(Cl)c1C(Nc1ncccn1)Nc1ncccn1,T/C,[2],106 % of control
same,T/C,[4],100 % of control
same,T/C,[12],97 % of control
CC(C)NC(=O)OCC#CCOC(=O)NC(C)C,T/C,[6],98 % of control
same,T/C,[7],90 % of control
same,T/C,[8],90 % of control

# From PubChem BioAssay AID330 (DTP/NCI, 2004)
